US9910031B2, “Compositions and methods for modulating c-Rel-dependent cytokine production” (Synta Pharmaceuticals Corporation, priority 2003, dated 2018)

Columns and labels:
IL-12 p70 = assay: Inhibition of production of IL-12 p70 protein; type: cell-based, human; conditions: Homo sapiens; 1 μM Compound 1; 10 mM ASA; read-out: percent inhibition of production of IL-12 p70 protein
Procedure: Cells were co-transfected with the vector pCMV (BD Biosciences Clontech) in which the constitutively active CMV promoter directs β-galactosidase expression for the monitoring of transfection efficiency. Luciferase and β-galactosidase activity were determined in cell extracts prepared according to the Luciferase assay system (Promega) and Luminescent n-gal Detection system (BD Biosciences Clontech). Luciferase activity was then normalized using the β-galactosidase value. […] ELISA was performed by the following method. Human IL-12 p70 (heterodimer) was assayed using ELI-PAIR kit from Cell Sciences (Norwood, Mass.), according to the manufacturer's instructions. Human IL-12 p40 was assayed using ELISA kit from Cell Sciences (Norwood, Mass.) according to the manufacturer's instructions.
The extracts obtained from this process were used in gel-shift assays using oligonucleotides containing the NFκB target sequence corresponding to the region −121 to −102 from the transcription initiation site of IL-12 p40 or a mutated NFκB binding site. […] This interaction was specific as it was competed away by an excess of unlabeled probe, but not by a mutated oligonucleotide in which two base-pairs were substituted. […] This is expected since a compound that potently blocks NFkB have a far broader cytokine inhibitory profile than Compound 1/Compound 2.

IL-12 p35 mRNA = assay: Northern blot of IL-12 p35 mRNA in IFN-γ/SAC-stimulated THP-1 cells; type: cell-based, human; conditions: THP-1, IFN-γ/SAC, 1 μM Compound 1
Procedure: (§1) Northern blot analysis was performed to examine the mRNA levels of IL-12 p35 and p40. Human PBMC and the human monocyte cell line THP-1 cells were stimulated with IFN-γ/SAC in the presence or absence of Compound 1. Human PBMC were isolated by centrifugation using Ficoll-Paque (Pharmacia Biotech, Uppsala, Sweden) and prepared in RPMI medium supplemented with 10% fetal calf serum (FCS), 100 U/ml penicillin, and 100 μg/ml streptomycin, in a 96-well plate with 5×10^5 cells/well. The cells were then primed with IFN-γ (100 U/ml) and followed by 0.01% SAC or 1 μg/ml LPS, in the presence of different concentrations of Compound 2 or other compounds. The test compounds were prepared in DMSO and the final DMSO concentration was adjusted to 0.25% in all cultures, including the compound-free control. Cell-free supernatants were taken 18 h later for the measurement of cytokines. The THP-1 cells were obtained from American Type Culture Collection (Manassas, Va.) and were cultured in RPMI 1640 (ATCC, Manassas, Va.), supplemented with 10% FCS (ATCC, Manassas, Va.), and 1% penicillin/Streptomycin (Gibco-BRL, New York, N.Y.). Total RNA was isolated and subjected to Northern blot analysis using IL-12 p35 and p40 cDNA probes. We first examined the kinetics of mRNA accumulation in cultures of hPBMC and THP-1 cells primed with IFN-γ followed by SAC stimulation in the presence or absence of 1 μM Compound 1.

IL-12 p40 mRNA [1] = assay: Northern blot of IL-12 p40 mRNA in IFN-γ/SAC-stimulated THP-1 cells; type: cell-based, human; conditions: THP-1, IFN-γ/SAC, 1 μM Compound 1
Procedure: as §1

IL-12 p40 mRNA [2] = assay: Northern blot of IL-12 p40 mRNA in IFN-γ/SAC-stimulated human PBMC; type: cell-based; conditions: hPBMC; for IL-12 p40 mRNA accumulation: 6 h after SAC
Procedure: as §1
We conducted a dose-response study of the inhibitory effects of Compound 1 on IL-12 mRNA expression in IFN-γ/SAC-stimulated hPBMC. Because both IL-12 p35 and p40 mRNA levels were maximal at 6 h after the addition of SAC, this time point was selected for the dose-response analysis.

IL-12 p40 = IL-12 p40 production in human monocyte-derived dendritic cells; type: cell-based; conditions: up to 10 μM
Procedure: Although c-Rel has a role in the expression of both p35 and p40 in monocytes and macrophages as well as p35 in dendritic cells (DCs), p40 expression in dendritic cells is c-Rel-independent (Grumont et al. J. Exp. Med. 2001; 194:1021-1031). If Compound 2 is acting through c-Rel, this drug should inhibit both p40 and p70 production by PBMCs. However, Compound 2 should inhibit the production of p70 (through inhibition of p35) in DCs, but should not inhibit p40 in DCs. This was tested by generating monocyte-derived dendritic cells according to the following method. Human PBMC at 1×10^7 cells/ml were suspended in serum-free DMEM and incubated for 2 hrs at 37° C. under 5% CO2. The non-adherent cells then were removed by washing with PBS. The adherent cells were cultured in RPMI-1640 medium containing rhIL-4 (100 U/ml) and rhGM-CSF (1000 U/ml) for 6-7 days. The half volume fresh media and full-volume fresh cytokines were added every other day. The cells were then primed with IFN-γ (100 U/ml) and followed by 0.01% SAC or 1 μg/ml LPS, in the presence of different concentrations of Compound 2 or other compounds. The test compounds were prepared in DMSO and the final DMSO concentration was adjusted to 0.25% in all cultures, including the compound-free control. Cell-free supernatants were taken 18 h later for the measurement of cytokines.

IκBα = assay: Inducible degradation of IκBα, Western blot and FACS analysis; type: cell-based, human; conditions: THP-1 and RAW267.4 cells, IFN-γ/LPS or IFN-γ/SAC, 500 nM, 30 min and 2 hrs
Procedure: IκB degradation is one of the steps in the signaling pathway of NFκB dependent genes. The activity of Compound 2 in inducible degradation of IκBα □ and IκBβ was investigated in THP-1 cells using Western blot and FACS analysis. […] Similar results were observed from the Compound 2 pre-treatment samples in which Compound 2 was added […] before stimulation.

| SMILES | inhibition at 1 µM (IL-12 p70) [%] | IL-12 p35 mRNA (IL-12 p35 mRNA) | expression of the p40 message (IL-12 p40 mRNA [1]) | expression of the mRNA for the p40 subunit (IL-12 p40 mRNA [2]; 1 μM Compound 1) | IL-12 p40 mRNA accumulation (IL-12 p40 mRNA [2]; 1 nM) | IL-12 p40 mRNA accumulation (IL-12 p40 mRNA [2]; 10 nM) | p40 production in human DCs (IL-12 p40) | amount of IκBα in the cytoplasm, treated vs untreated (IκBα) |
| --- | --- | --- | --- | --- | --- | --- | --- | --- |
| C(=NNc1nc(OCCc2ccccn2)nc(N2CCOCC2)n1)c1c[nH]c2ccccc12 [Compound 1, N-(1H-indol-3-ylmethylene)-N′-[4-morpholin-4-yl-6-(2-pyridin-2-yl-ethoxy)-[1,3,5]triazin-2-yl]-hydrazine] | 97 | undetectable | significantly but incompletely reduced | reduced significantly but incompletely | barely inhibited | maximum, though still incomplete inhibition |  |  |
| Cc1cccc(C=NNc2cc(N3CCOCC3)nc(OCCc3ccccn3)n2)c1 [Compound 2, N-(3-methyl-benzylidene)-N′-[6-morpholin-4-yl-2-(2-pyridin-2-yl-ethoxy)-pyrimidin-4-yl]-hydrazine] |  |  |  |  |  |  | no inhibition | no significant difference |
